Source: ChEMBL document CHEMBL1926604, “Design and synthesis of pyridin-2-ylmethylaminopiperidin-1-ylbutyl amide CCR5 antagonists that are potent inhibitors of M-tropic (R5) HIV-1 replication” (Bioorg Med Chem Lett, 2011)
Active and inactive are the calls of the source. No cut-off for these calls is given here.

Columns and labels:
[1] = Cytotoxic activity against human PBMC assessed as reduction in cell viability; assay type: cell-based
[2] = system: Human immunodeficiency virus 1; experiment: Antiviral activity against R5 tropic Human immunodeficiency virus 1 BAL infected in human PBMC cells assessed as reduction in viral replication by p24 detection based ELISA; assay type: functional, organism-based
[3] = system: Plasma; experiment: (§1) Plasma protein binding in human plasma at 1 uM after 5 hrs by LC-MS/MS analysis; assay type: ADME, cell-free; details: 5 h, 1 µM
[4] = Oral bioavailability in dog; assay type: ADME, organism-based, Canis lupus familiaris; details: in vivo
[5] = Half life in dog at 5 umol/kg, iv; assay type: ADME, organism-based, Canis lupus familiaris; details: in vivo
[6] = target: Cytochrome P450 3A4 (Homo sapiens, UniProt P08684); experiment: Inhibition of CYP3A4; assay type: ADME
Sequence of Cytochrome P450 3A4 (P08684 whole entry): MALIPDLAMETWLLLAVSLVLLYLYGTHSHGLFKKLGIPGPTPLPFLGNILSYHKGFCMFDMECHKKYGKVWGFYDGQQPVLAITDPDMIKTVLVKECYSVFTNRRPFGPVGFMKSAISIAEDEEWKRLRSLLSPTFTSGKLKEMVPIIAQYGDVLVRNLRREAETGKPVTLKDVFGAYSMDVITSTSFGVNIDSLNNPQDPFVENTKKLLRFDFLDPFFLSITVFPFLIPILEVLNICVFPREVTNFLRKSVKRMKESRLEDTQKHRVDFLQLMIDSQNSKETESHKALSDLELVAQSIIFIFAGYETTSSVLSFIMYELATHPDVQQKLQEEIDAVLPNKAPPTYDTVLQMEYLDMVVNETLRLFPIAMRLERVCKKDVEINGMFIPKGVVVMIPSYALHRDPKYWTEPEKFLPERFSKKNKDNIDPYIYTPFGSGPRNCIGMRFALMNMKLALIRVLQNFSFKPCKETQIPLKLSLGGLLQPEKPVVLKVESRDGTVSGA

[7] = Volume of distribution at steady state in rat at 10 umol/kg, iv; assay type: ADME, organism-based; details: in vivo, 10 umol/kg, read-out: Vdss
[8] = target: C-X-C chemokine receptor type 4 (Homo sapiens) (UniProt P61073); experiment: Inhibition of CXCR4 by Ca(2+) flux assay
Sequence of C-X-C chemokine receptor type 4 (Homo sapiens) (P61073 whole entry): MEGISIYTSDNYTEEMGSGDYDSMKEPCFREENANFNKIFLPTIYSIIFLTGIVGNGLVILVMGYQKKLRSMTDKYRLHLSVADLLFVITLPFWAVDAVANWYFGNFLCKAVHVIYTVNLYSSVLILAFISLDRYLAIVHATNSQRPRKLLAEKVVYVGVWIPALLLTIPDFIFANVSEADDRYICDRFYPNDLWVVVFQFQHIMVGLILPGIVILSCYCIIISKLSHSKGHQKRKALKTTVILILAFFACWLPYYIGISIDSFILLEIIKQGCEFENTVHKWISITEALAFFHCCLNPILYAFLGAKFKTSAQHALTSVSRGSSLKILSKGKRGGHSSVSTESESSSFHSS

[9] = target: Cytochrome P450 2C9 (Homo sapiens, UniProt P11712); experiment: Inhibition of CYP2C9; assay type: ADME
Sequence of Cytochrome P450 2C9 (P11712 whole entry): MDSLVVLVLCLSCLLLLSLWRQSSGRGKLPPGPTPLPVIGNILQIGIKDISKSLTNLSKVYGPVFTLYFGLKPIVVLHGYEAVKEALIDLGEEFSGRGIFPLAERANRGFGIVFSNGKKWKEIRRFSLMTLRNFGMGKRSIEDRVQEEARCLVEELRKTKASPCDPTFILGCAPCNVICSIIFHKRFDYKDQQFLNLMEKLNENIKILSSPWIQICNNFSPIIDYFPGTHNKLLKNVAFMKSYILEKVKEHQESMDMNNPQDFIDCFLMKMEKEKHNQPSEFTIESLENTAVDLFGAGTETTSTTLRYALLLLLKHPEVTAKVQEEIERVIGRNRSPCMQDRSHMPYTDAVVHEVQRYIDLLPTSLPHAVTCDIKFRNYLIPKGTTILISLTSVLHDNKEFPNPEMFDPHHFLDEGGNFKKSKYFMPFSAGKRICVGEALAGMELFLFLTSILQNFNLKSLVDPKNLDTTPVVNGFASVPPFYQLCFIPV

[10] = target: T1, C-X-C chemokine receptor type 1 (Homo sapiens) (UniProt P25024); experiment: Inhibition of CXCR1 by Ca(2+) flux assay
T1 sequence (whole entry): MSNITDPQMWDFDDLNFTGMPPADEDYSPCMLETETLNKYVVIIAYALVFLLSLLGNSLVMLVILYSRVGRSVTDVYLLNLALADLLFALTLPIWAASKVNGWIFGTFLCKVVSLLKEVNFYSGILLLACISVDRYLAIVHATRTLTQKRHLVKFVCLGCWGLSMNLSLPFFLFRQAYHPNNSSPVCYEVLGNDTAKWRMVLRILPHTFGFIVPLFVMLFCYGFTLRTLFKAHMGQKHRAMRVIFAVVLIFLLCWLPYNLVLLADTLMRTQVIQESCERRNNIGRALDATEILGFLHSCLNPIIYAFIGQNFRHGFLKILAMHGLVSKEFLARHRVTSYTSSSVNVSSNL

[11] = AUC (0 to infinity) in dog; assay type: ADME, organism-based, Canis lupus familiaris; set-up: time infinity; concentration or dose not given beside the values; details: plasma
[12] = target: Cytochrome P450 2C19 (Homo sapiens, UniProt P33261); experiment: Inhibition of CYP2C19; assay type: ADME
Sequence of Cytochrome P450 2C19 (P33261 whole entry): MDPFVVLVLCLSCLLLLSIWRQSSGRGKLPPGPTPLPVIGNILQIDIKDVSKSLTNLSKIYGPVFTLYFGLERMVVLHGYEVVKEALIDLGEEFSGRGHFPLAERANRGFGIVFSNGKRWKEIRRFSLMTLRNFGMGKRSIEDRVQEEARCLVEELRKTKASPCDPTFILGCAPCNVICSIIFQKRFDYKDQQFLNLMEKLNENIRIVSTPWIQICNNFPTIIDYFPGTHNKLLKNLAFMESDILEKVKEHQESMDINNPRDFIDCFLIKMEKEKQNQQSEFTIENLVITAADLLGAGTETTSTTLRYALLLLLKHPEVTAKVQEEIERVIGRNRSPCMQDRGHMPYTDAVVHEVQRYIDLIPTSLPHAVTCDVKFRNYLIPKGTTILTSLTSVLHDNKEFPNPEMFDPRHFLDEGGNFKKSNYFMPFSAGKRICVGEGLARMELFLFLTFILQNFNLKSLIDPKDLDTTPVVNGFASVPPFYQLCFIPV

[13] = target: C-C chemokine receptor type 2 (Homo sapiens) (UniProt P41597); experiment: Inhibition of CCR2B by Ca(2+) flux assay
Sequence of C-C chemokine receptor type 2 (Homo sapiens) (P41597 whole entry, looked up): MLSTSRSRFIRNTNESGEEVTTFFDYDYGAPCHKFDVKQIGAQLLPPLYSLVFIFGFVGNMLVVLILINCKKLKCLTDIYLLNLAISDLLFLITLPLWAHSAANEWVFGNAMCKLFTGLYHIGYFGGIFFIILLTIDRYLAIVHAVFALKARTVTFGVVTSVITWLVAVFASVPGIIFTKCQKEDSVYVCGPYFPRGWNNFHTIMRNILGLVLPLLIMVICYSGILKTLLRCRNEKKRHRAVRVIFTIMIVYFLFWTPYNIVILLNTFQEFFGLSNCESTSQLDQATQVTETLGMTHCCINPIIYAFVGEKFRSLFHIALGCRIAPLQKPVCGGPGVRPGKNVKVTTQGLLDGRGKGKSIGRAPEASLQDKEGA

[14] = target: T2, C-C chemokine receptor type 4 (Homo sapiens) (UniProt P51679); experiment: Inhibition of CCR4 by Ca(2+) flux assay
T2 sequence (whole entry): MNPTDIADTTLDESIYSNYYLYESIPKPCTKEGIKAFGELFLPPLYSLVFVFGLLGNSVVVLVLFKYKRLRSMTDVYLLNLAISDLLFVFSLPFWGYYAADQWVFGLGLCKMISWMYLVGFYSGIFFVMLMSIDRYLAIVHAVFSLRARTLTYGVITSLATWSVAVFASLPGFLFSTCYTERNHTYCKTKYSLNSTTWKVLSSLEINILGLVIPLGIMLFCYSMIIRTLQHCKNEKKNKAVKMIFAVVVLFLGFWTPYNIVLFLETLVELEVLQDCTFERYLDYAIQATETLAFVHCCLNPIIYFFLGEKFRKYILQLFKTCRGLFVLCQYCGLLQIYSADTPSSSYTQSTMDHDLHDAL

[15] = as §1; assay type: ADME, cell-free; details: read-out: PPB (converted)
[16] = target: T3, C-X-C chemokine receptor type 2 (Homo sapiens) (UniProt P25025); experiment: Inhibition of CXCR2 by Ca(2+) flux assay
T3 sequence (whole entry): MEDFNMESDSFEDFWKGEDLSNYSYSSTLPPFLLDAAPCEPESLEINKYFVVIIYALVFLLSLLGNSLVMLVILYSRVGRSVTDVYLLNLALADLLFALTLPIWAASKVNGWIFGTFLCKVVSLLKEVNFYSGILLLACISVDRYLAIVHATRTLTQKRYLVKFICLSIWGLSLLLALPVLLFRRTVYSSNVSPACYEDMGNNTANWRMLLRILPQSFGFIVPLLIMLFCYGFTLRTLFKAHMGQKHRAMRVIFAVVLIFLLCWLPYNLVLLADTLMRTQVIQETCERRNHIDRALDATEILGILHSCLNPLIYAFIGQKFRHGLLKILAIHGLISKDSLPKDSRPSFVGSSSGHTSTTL

[17] = target: T4, C-C chemokine receptor type 1 (Homo sapiens) (UniProt P32246); experiment: Inhibition of CCR1 by Ca(2+) flux assay
T4 sequence (whole entry): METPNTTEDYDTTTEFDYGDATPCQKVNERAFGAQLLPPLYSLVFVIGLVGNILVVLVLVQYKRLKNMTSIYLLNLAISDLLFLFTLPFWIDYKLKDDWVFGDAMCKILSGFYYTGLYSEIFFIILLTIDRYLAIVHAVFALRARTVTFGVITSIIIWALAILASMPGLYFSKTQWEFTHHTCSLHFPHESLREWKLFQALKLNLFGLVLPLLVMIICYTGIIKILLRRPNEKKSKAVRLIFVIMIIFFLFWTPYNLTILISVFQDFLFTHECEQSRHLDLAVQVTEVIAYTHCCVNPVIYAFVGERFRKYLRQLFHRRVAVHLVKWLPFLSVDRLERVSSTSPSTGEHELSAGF

[18] = target: Cytochrome P450 2D6 (Homo sapiens, UniProt P10635); experiment: Inhibition of CYP2D6; assay type: ADME
Sequence of Cytochrome P450 2D6 (P10635 whole entry): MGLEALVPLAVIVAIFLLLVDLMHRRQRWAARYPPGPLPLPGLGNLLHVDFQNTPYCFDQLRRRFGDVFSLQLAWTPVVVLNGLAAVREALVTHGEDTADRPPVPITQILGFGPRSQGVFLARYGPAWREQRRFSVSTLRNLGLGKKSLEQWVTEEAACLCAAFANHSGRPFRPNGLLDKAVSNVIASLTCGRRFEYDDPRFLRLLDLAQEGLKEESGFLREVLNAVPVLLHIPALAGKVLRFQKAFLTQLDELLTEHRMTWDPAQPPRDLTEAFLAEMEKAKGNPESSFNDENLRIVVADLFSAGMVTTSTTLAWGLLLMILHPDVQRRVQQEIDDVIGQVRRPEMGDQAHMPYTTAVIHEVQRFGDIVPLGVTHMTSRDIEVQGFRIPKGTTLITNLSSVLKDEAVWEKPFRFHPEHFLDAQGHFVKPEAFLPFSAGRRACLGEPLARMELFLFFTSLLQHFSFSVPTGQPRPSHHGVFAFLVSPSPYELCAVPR

[19] = target: T5, Cytochrome P450 1A2 (Homo sapiens, UniProt P05177); experiment: Inhibition of CYP1A2; assay type: ADME
T5 sequence (P05177 whole entry): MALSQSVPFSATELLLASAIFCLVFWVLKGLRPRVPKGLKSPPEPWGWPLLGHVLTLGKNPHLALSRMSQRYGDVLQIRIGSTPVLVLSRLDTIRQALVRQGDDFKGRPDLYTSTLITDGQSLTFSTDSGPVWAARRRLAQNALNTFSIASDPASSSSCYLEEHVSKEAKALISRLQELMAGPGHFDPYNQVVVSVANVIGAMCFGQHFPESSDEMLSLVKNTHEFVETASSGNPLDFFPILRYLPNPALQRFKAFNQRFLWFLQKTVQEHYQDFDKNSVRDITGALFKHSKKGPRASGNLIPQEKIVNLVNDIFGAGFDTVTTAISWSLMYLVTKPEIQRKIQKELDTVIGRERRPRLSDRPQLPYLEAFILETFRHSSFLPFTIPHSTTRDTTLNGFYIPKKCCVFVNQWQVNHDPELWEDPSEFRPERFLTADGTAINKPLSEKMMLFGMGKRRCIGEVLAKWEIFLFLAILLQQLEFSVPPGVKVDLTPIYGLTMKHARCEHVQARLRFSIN

[20] = Cmax in dog; assay type: ADME, organism-based, Canis lupus familiaris; details: in vivo
[21] = AUC (0 to infinity) in rat; assay type: ADME, organism-based; set-up: time infinity; concentration or dose not given beside the values; details: plasma
[22] = Half life in rat at 10 umol/kg, iv; assay type: ADME, organism-based; details: in vivo, 10 umol/kg
[23] = Clearance in rat at 10 umol/kg, iv; assay type: ADME, organism-based; details: in vivo
[24] = target: Voltage-gated inwardly rectifying potassium channel KCNH2 (Homo sapiens, UniProt Q12809); experiment: Inhibition of human ERG
Sequence of Voltage-gated inwardly rectifying potassium channel KCNH2 (Q12809 whole entry): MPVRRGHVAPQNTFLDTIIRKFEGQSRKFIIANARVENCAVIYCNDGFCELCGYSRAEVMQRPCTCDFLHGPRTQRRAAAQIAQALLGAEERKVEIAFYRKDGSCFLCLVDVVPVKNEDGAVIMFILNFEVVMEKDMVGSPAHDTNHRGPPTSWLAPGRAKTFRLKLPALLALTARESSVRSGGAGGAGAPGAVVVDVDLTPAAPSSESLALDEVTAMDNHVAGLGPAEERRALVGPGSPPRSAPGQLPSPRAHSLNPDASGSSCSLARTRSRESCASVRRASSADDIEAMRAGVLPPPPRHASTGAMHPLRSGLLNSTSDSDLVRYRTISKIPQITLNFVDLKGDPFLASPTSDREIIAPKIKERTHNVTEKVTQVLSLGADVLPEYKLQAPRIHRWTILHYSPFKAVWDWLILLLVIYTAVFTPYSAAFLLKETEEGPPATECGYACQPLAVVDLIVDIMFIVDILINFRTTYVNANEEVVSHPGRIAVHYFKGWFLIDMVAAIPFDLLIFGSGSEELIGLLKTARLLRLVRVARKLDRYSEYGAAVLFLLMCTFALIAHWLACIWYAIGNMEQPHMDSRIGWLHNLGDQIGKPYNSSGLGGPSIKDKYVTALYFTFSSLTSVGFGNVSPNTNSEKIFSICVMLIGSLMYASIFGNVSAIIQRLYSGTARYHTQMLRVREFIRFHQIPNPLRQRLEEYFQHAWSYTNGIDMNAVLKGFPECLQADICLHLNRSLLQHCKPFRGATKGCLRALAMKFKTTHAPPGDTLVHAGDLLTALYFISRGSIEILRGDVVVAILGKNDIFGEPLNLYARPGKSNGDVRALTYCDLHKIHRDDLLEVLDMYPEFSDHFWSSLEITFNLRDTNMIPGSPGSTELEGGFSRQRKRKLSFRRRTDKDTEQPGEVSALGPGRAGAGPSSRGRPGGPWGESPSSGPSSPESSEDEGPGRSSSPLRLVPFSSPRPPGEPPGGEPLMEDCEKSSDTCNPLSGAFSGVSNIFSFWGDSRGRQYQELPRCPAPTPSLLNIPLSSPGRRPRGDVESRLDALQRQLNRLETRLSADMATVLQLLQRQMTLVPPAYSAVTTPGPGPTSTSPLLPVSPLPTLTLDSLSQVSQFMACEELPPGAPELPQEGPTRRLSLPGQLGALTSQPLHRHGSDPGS

[25] = Clearance in dog at 5 umol/kg, iv; assay type: ADME, organism-based, Canis lupus familiaris; details: in vivo
[26] = Cmax in rat; assay type: ADME, organism-based; details: in vivo
[27] = target: T6, Muscarinic acetylcholine receptor M2 (Homo sapiens) (UniProt P08172); experiment: Inhibition of muscarinic M2 receptor
T6 sequence (whole entry): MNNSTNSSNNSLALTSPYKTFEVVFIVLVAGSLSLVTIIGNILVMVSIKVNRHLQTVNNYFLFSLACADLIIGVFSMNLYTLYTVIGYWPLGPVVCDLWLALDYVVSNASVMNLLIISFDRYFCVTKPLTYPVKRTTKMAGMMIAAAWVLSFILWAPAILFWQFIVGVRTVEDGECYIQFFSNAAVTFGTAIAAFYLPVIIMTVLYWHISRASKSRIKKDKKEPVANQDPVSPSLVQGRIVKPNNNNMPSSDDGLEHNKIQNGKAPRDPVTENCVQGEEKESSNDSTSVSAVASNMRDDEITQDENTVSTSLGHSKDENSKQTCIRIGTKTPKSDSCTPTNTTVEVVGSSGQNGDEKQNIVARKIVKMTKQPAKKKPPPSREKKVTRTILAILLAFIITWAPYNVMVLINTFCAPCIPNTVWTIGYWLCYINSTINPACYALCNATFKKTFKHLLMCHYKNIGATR

[28] = Volume of distribution at steady state in dog at 5 umol/kg, iv; assay type: ADME, organism-based, Canis lupus familiaris; details: in vivo, read-out: Vdss
[29] = Oral bioavailability in rat; assay type: ADME, organism-based; details: in vivo

COc1ccc(N(Cc2cnccc2C)C2CCN([C@H](C)CCNC(=O)c3c(C)ncnc3C)CC2)cc1
CC50 [1]: > 38300 nM
IC50 [2]: 1830 nM
PPB [3]: 75%

COc1ccc(N(Cc2cnccc2C)C2CCN([C@H](C)CCNC(=O)c3c(C)cc(Cl)nc3C)CC2)cc1
CC50 [1]: > 36400 nM
bioavailability [4]: 21%
half-life [5]: 13.5 h
INH [6]: > 10 µM
Vd [7]: 40.5 L/kg
inhibition [8]: inactive
INH [9]: > 10 µM
inhibition [10]: inactive
AUC(0-inf) [11]: 1.33 µM·h
IC50 [2]: 2.2 nM
INH [12]: > 10 µM
inhibition [13]: inactive
inhibition [14]: inactive
fraction unbound at 5 h, 1 µM [15]: 0.08
inhibition [16]: inactive
inhibition [17]: inactive
INH [18]: > 10 µM
INH [19]: > 10 µM
Cmax [20]: 580 nM
AUC(0-inf) [21]: 22.7 µM·h
half-life [22]: 10 h
clearance [23]: 46.7 mL/min/kg
IC50 [24]: 250 nM
clearance [25]: 30 mL/min/kg
Cmax [26]: 3800 nM
inhibition [27]: inactive
Vd [28]: 34.7 L/kg
bioavailability [29]: 67%
